# Assay results published in patent US20190117586A1, “METHODS OF PREVENTING OR TREATING PARKINSON'S DISEASE BY THE FARNESYLATION OF PARIS” (The Johns Hopkins University, priority 2016, published 2019).
# How the values were obtained:
# PGC-1α = PGC-1α levels in SH-SY5Y cells by immunoblot; format: cell-based; settings: FIG. 3H
# Procedure: The 9 compounds that activate the PGC-1α promoter in the presence of PARIS were evaluated to determine which compounds induce PGC-1α levels in SH-SY5Y cells (FIGS. 2A and 2B). […] The mRNA level of PGC-1α target genes including copper/zinc superoxide dismutase (SOD1), manganese SOD (SOD2), glutathione peroxidase (GPx1), catalase (CAT), nuclear respiratory factor-1 (NRF-1), mitochondrial transcription factor A (TFAM), mitochondrial uncoupling proteins (UCP2 and UCP3), and the oxidative phosphorylation regulators, ATP5b, cytochrome C (CytC) and cytochrome C oxidase (COX II and IV) were determined by real-time quantitative RT-PCR (qRT-PCR) (FIG. 2C).
# (§1) Geraniol or geranylgeraniol have no effect on PGC-1α levels (FIG. 3H).
# FTase = FTase (Homo sapiens, UniProt P49354+P49356); assay: In vitro farnesylation of recombinant GST-PARIS by FTase and FPP; format: biochemical
# Procedure: Next, a biotechnological approach to confirm that PARIS is prenylated was applied (Nguyen et al., 2009). The total cell lysate of SH-SY5Y cells transfected with Flag-tagged PARIS was incubated with a biotin-functionalized geranyl pyrophosphate analogue (Biotin-GPP) and the recombinant FTase W102T/Y154T mutant, which was engineered to utilize Biotin-GPP as a lipid donor (Nguyen et al., 2009). […] In addition, the immunoprecipitate of Flag-tagged PARIS from SH-SY5Y cells transfected with either siRNA-control or siRNA-FTase α was mixed with NBD-GPP, a […] fluorescent analog of FPP for an in vitro farnesylation assay (IVF). […] To determine whether FTase directly farnesylates PARIS, recombinant GST-PARIS was incubated with FTase and FPP in the presence and absence of the FTase inhibitor, FTI-277. GST-PARIS undergoes farnesylation by FTase, which is abolished by the addition of FTase inhibitor, FTI-277 (FIG. 3E).
# The in vitro farnesylation assay (IVF) was performed as described (Nguyen et al., 2009; Nguyen et al., 2010; Wu et al., 2007). Briefly, for metabolic global farnesylation, 5 μCi [^3H]-farnesyl pyrophosphate (FPP) (NET1042001MC, PerkinElmer) was treated into SH-SY5Y cells and immunoprecipitant was monitored by immunoblot analysis with Farnesyl antibody. […] For fluorescence-based IVF, immunoprecipitated Flag-tagged PARIS was incubated for 20 min with NBD-GPP (LI-014, Jena Bioscience). […]
# PARIS = PARIS farnesylation in SH-SY5Y cells transfected with Flag-tagged PARIS (immunoprecipitation); format: cell-based; settings: PARIS overexpression, farnesol
# Procedure: as §1
# To confirm that farnesylation of PARIS requires FTase, siRNA-FTase α knockdown or FTI-277 inhibition of FTase in the setting of PARIS overexpression was performed (FIG. 4C). […] To ascertain whether the farnesylation of PARIS affects the DNA binding activity of PARIS on the IRS motif of the PGC-1α promoter, a chromatin immunoprecipitation assay (ChIP) was performed from SH-SY5Y transfected with GFP-tagged PARIS WT or GFP-tagged PARIS C631S. […] To examine the possibility that the farnesylation of PARIS alters its subcellular distribution, subcellular fractionation was used to monitor the levels of PARIS in cytosolic, membrane, soluble nuclear, and chromatin-bound nuclear fractions by immunoblot analysis (FIG. 4F).
farnesylation of GST-PARIS by FTase (FTase),Compound,"PGC-1α levels, specificity test with compounds of similar structure (PGC-1α)",farnesylation of PARIS by farnesol under FTase inhibition (PARIS)
,CC(C)=CCC/C(C)=C/CC/C(C)=C/CC/C(C)=C/CO [geranylgeraniol],no effect,
,CC(C)=CCC/C(C)=C/CO [Geraniol],no effect,
abolished,"COC(=O)[C@H](CCSC)NC(=O)c1ccc(NC[C@@H](N)CS)cc1-c1ccccc1 [FTI-277, reference compound]",,strongly prevents farnesylation of PARIS by farnesol
